≈ marks a conversion by molar mass, not a printed value.
Experiments:
[1] = tested on: Candida albicans; assay: Antifungal activity against Candida albicans MTCC 227 assessed as zone of inhibition at 100 ug/ml after 30 hrs by cup plate method; assay type: functional; details: MTCC 227, 30 h, read-out: IZ
[2] = tested on: Candida albicans; assay: Antifungal activity against Candida albicans MTCC 227 after 30 hrs by serial dilution method; assay type: functional; details: MTCC 227, 30 h
[3] = tested on: Aspergillus flavus; assay: Antifungal activity against Aspergillus flavus MTCC 277 assessed as zone of inhibition at 100 ug/ml after 30 hrs by cup plate method; assay type: functional; details: MTCC 277, 30 h, read-out: IZ
[4] = tested on: Aspergillus flavus; assay: Antifungal activity against Aspergillus flavus MTCC 277 after 30 hrs by serial dilution method; assay type: functional; details: MTCC 277, 30 h
[5] = tested on: Aspergillus fumigatus; assay: Antifungal activity against Aspergillus fumigatus MTCC 343 assessed as zone of inhibition at 100 ug/ml after 30 hrs by cup plate method; assay type: functional; details: MTCC 343, 30 h, read-out: IZ
[6] = tested on: Aspergillus fumigatus; assay: Antifungal activity against Aspergillus fumigatus MTCC 343 after 30 hrs by serial dilution method; assay type: functional; details: MTCC 343, 30 h
[7] = tested on: Aspergillus niger; assay: Antifungal activity against Aspergillus niger MTCC 282 assessed as zone of inhibition at 100 ug/ml after 30 hrs by cup plate method; assay type: functional; details: MTCC 282, 30 h, read-out: IZ
[8] = tested on: Aspergillus niger; assay: Antifungal activity against Aspergillus niger MTCC 282 after 30 hrs by serial dilution method; assay type: functional; details: MTCC 282, 30 h
[9] = tested on: Klebsiella pneumoniae; assay: Antibacterial activity against Klebsiella pneumoniae MTCC 432 assessed as zone of inhibition at 100 ug/ml after 14 hrs by cup plate method; assay type: functional; details: MTCC 432, 14 h, read-out: IZ
[10] = tested on: Klebsiella pneumoniae; assay: Antibacterial activity against Klebsiella pneumoniae MTCC 432 after 14 hrs by serial dilution method; assay type: functional; details: MTCC 432, 14 h
[11] = tested on: Salmonella typhi; assay: Antibacterial activity against Salmonella typhi MTCC 733 assessed as zone of inhibition at 100 ug/ml after 14 hrs by cup plate method; assay type: functional, Salmonella enterica subsp. enterica serovar Typhi; details: Salmonella enterica, MTCC 733, 14 h; read-out: IZ
[12] = tested on: Salmonella typhi; assay: Antibacterial activity against Salmonella typhi MTCC 733 after 14 hrs by serial dilution method; assay type: functional, Salmonella enterica subsp. enterica serovar Typhi; details: Salmonella enterica, MTCC 733, 14 h
[13] = tested on: Escherichia coli; assay: Antibacterial activity against Escherichia coli MTCC 443 assessed as zone of inhibition at 100 ug/ml after 14 hrs by cup plate method; assay type: functional; details: MTCC 443, 14 h, read-out: IZ
[14] = tested on: Bacillus subtilis; assay: Antibacterial activity against Bacillus subtilis MTCC 441 after 14 hrs by serial dilution method; assay type: functional; details: MTCC 441, 14 h
[15] = tested on: Staphylococcus aureus; assay: Antibacterial activity against Staphylococcus aureus MTCC 096 assessed as zone of inhibition at 100 ug/ml after 14 hrs by cup plate method; assay type: functional; details: MTCC 096, 14 h, read-out: IZ
[16] = tested on: Staphylococcus aureus; assay: Antibacterial activity against Staphylococcus aureus MTCC 096 after 14 hrs by serial dilution method; assay type: functional; details: MTCC 096, 14 h
[17] = tested on: Escherichia coli; assay: Antibacterial activity against Escherichia coli MTCC 443 after 14 hrs by serial dilution method; assay type: functional; details: MTCC 443, 14 h
[18] = tested on: Bacillus subtilis; assay: Antibacterial activity against Bacillus subtilis MTCC 441 assessed as zone of inhibition at 100 ug/ml after 14 hrs by cup plate method; assay type: functional; details: MTCC 441, 14 h, read-out: IZ

For `O=C1c2ccccc2C(=O)N1CCCCn1c(C(F)(F)F)cc(=O)c2ccccc21`, the zone of inhibition at 100 µg/mL [1] was 17 mm, the MIC [2] was 6.25 µg/mL (≈ 15.1 µM) and the zone of inhibition at 100 µg/mL [3] was under 10 mm. For the same compound, the MIC [4] was 25 µg/mL (≈ 60.3 µM), the zone of inhibition at 100 µg/mL [5] was under 10 mm and the MIC [6] was 25 µg/mL (≈ 60.3 µM). For the same compound, the zone of inhibition at 100 µg/mL [7] was 13 mm, the MIC [8] was 12.5 µg/mL (≈ 30.2 µM) and the zone of inhibition at 100 µg/mL [9] was 13 mm. The MIC [10] was 12.5 µg/mL (≈ 30.2 µM), the zone of inhibition at 100 µg/mL [11] was under 10 mm and the MIC [12] was 25 µg/mL (≈ 60.3 µM). The zone of inhibition at 100 µg/mL [13] was under 10 mm, the MIC [14] was 12.5 µg/mL (≈ 30.2 µM) and the zone of inhibition at 100 µg/mL [15] was 13 mm. For the same compound, the MIC [16] was 12.5 µg/mL (≈ 30.2 µM), the MIC [17] was 50 µg/mL (≈ 121 µM) and the zone of inhibition at 100 µg/mL [18] was 12 mm.

`O=C1c2ccccc2C(=O)N1CCCCn1c(C(F)(F)F)cc(=O)c2cc(F)ccc21` showed a zone of inhibition at 100 µg/mL [1] of 17 mm, an MIC [2] of 6.25 µg/mL (≈ 14.5 µM) and a zone of inhibition at 100 µg/mL [3] of under 10 mm. The MIC [4] was 25 µg/mL (≈ 57.8 µM), the zone of inhibition at 100 µg/mL [5] was 12 mm and the MIC [6] was 12.5 µg/mL (≈ 28.9 µM). For the same compound, the zone of inhibition at 100 µg/mL [7] was 17 mm, the MIC [8] was 6.25 µg/mL (≈ 14.5 µM) and the zone of inhibition at 100 µg/mL [9] was 13 mm. The MIC [10] was 12.5 µg/mL (≈ 28.9 µM), the zone of inhibition at 100 µg/mL [11] was 13 mm and the MIC [12] was 12.5 µg/mL (≈ 28.9 µM). For the same compound, the zone of inhibition at 100 µg/mL [13] was under 10 mm, the MIC [14] was 12.5 µg/mL (≈ 28.9 µM) and the zone of inhibition at 100 µg/mL [15] was 15 mm. It also gave an MIC [16] of 6.25 µg/mL (≈ 14.5 µM), an MIC [17] of 50 µg/mL (≈ 116 µM) and a zone of inhibition at 100 µg/mL [18] of 13 mm.

`Cc1ccc2c(c1)c(=O)cc(C(F)(F)F)n2CCCCN1C(=O)c2ccccc2C1=O` gave a zone of inhibition at 100 µg/mL [1] of 15 mm, an MIC [2] of 6.25 µg/mL (≈ 14.6 µM) and a zone of inhibition at 100 µg/mL [3] of 12 mm. It also gave an MIC [4] of 12.5 µg/mL (≈ 29.2 µM), a zone of inhibition at 100 µg/mL [5] of under 10 mm and an MIC [6] of 25 µg/mL (≈ 58.4 µM). The zone of inhibition at 100 µg/mL [7] was 12 mm, the MIC [8] was 12.5 µg/mL (≈ 29.2 µM) and the zone of inhibition at 100 µg/mL [9] was 13 mm. The MIC [10] was 12.5 µg/mL (≈ 29.2 µM), the zone of inhibition at 100 µg/mL [11] was 13 mm and the MIC [12] was 12.5 µg/mL (≈ 29.2 µM). For the same compound, the zone of inhibition at 100 µg/mL [13] was under 10 mm, the MIC [14] was 6.25 µg/mL (≈ 14.6 µM) and the zone of inhibition at 100 µg/mL [15] was 15 mm. The MIC [16] was 6.25 µg/mL (≈ 14.6 µM), the MIC [17] was 25 µg/mL (≈ 58.4 µM) and the zone of inhibition at 100 µg/mL [18] was 15 mm.

Source: ChEMBL document CHEMBL2380193, “New trifluoromethyl quinolone derivatives: synthesis and investigation of antimicrobial properties” (2013)
